Reference: the supplement of paper PMC11208160

Assay: recombinant UMI read abundance after kanamycin selection (control-corrected) (log10(CPM+1)); higher = more efficient recombination; extreme values may be limits of the assay; sequences stand for … in AGTGCAGAGAAAATCGGCCAGTTTTCTCTGCCTGCAGTCCGCATGCCGTGGGACCCCTTGGGTTCTAACCTGTTGCCTAGATTTATGCAGCGGACTGCCTTTCTCCCAAAGTGATAAACCGG…AGGTTGGTTTCACT; site = the 11-nt donor
How it was run: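 Pooled Escherichia coli screen of donor and donor-binding-loop pairs for the IS621 bridge recombinase. Each pair sits with a 12-nt UMI on a plasmid carrying a promoterless kanamycin gene. The library was co-electroporated with a target plasmid encoding a fixed target and T7-inducible recombinase, then plated with IPTG (0.07 mM) plus kanamycin, or unselected, each in two replicates. Recombinant UMIs were PCR-amplified across the donor–target junction and sequenced. Counts became CPM, averaged over replicates, scaled by control-derived factors and reported as log10(CPM+1).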
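Note: IS621 bridge recombinase in Escherichia coli cells against a fixed T5 target plasmid.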

“CAACCGCCATGGACCGGTTTTCCCGGTAATCCGTATTTGTG (site CAAGCGCCTCA)” and “CAACCGCCATGGACCGGTTTTCCCGGTAATCCGTATTTGTG (site CAATCGCCTCA)” are within 0.2 log units of each other in “recombinant UMI read abundance (log10)” value: 0.0348 for the first, 0.0138 for the second.

First: CAACGCACATGGACCGGTTTTCCCGGTAATCCGTATTTGTT (site CAACGCACTAA)
Second: CAAGAGCCATGGACCGGTTTTCCCGGTAATCCGTATTTGTG (site CAAGAGCCTCA)
The “recombinant UMI read abundance (log10)” value of the first is higher: 1.62 for the first, 1.28 for the second.

Going from “CAAGAGCCATGGACCGGTTTTCCCGGTAATCCGTATTTGTG (site CAAGCGCCTCA)” to “CAAGAGCCATGGACCGGTTTTCCCGGTAATCCGTATTTGTG (site CAAGGGCCTCA)”, the “recombinant UMI read abundance (log10)” value rises from 0.0351 to 0.55.

First: CAAGAGCCATGGACCGGTTTTCCCGGTAATCCGTATTTGTG (site CAAGTGCCTCA)
Second: CAAGCAACATGGACCGGTTTTCCCGGTAATCCGTATTTGCT (site CAAGCAACTAG)
The “recombinant UMI read abundance (log10)” value of the first is lower: 0.0217 for the first, 1.57 for the second.

“CAAGCAACATGGACCGGTTTTCCCGGTAATCCGTATTTGCT (site CAAGCACCTAG)” and “CAAGCAACATGGACCGGTTTTCCCGGTAATCCGTATTTGCT (site CAAGCAGCTAG)” are the same in “recombinant UMI read abundance (log10)” value: 0 for the first, 0 for the second.

Going from “CAAGCAACATGGACCGGTTTTCCCGGTAATCCGTATTTGCT (site CAAGCATCTAG)” to “CAAGCCACATGGACCGGTTTTCCCGGTAATCCGTATTTGGG (site CAAGACACTCC)”, the “recombinant UMI read abundance (log10)” value falls from 0.289 to 0.0254.

First: CAAGCCACATGGACCGGTTTTCCCGGTAATCCGTATTTGGG (site CAAGCCACTCC)
Second: CAAGCCACATGGACCGGTTTTCCCGGTAATCCGTATTTGGG (site CAAGGCACTCC)
The “recombinant UMI read abundance (log10)” value of the first is higher: 0.408 for the first, 0.00628 for the second.

Going from “CAAGCCACATGGACCGGTTTTCCCGGTAATCCGTATTTGGG (site CAAGTCACTCC)” to “CAAGCCCCATGGACCGGTTTTCCCGGTAATCCGTATTTGCT (site CAAGCCCCTAG)”, the “recombinant UMI read abundance (log10)” value rises from 0.0106 to 2.06.

First: CAAGCCGCATGGACCGGTTTTCCCGGTAATCCGTATTTGCT (site CAAGCAGCTAG)
Second: CAAGCCGCATGGACCGGTTTTCCCGGTAATCCGTATTTGCT (site CAAGCCGCTAG)
The “recombinant UMI read abundance (log10)” value of the first is lower: 2.06 for the first, 2.56 for the second.

“CAAGCCGCATGGACCGGTTTTCCCGGTAATCCGTATTTGCT (site CAAGCGGCTAG)” and “CAAGCCGCATGGACCGGTTTTCCCGGTAATCCGTATTTGCT (site CAAGCTGCTAG)” are within 0.2 log units of each other in “recombinant UMI read abundance (log10)” value: 0.00324 for the first, 0 for the second.

“CAAGCGCCATGGACCGGTTTTCCCGGTAATCCGTATTTGGG (site CAAGCGCCTCA)” and “CAAGCGCCATGGACCGGTTTTCCCGGTAATCCGTATTTGGG (site CAAGCGCCTCC)” are within 0.2 log units of each other in “recombinant UMI read abundance (log10)” value: 0.0177 for the first, 0.0155 for the second.

“CAAGCGCCATGGACCGGTTTTCCCGGTAATCCGTATTTGGG (site CAAGCGCCTCG)” and “CAAGCGCCATGGACCGGTTTTCCCGGTAATCCGTATTTGGG (site CAAGCGCCTCT)” are within 0.2 log units of each other in “recombinant UMI read abundance (log10)” value: 0.0252 for the first, 0.0195 for the second.

“CAAGCGCCATGGACCGGTTTTCCCGGTAATCCGTATTTGTG (site AAAGCGCCTCA)” and “CAAGCGCCATGGACCGGTTTTCCCGGTAATCCGTATTTGTG (site CAAACGCCTCA)” are within 0.2 log units of each other in “recombinant UMI read abundance (log10)” value: 0.0176 for the first, 0.0285 for the second.

“CAAGCGCCATGGACCGGTTTTCCCGGTAATCCGTATTTGTG (site CAACCGCCTCA)” and “CAAGCGCCATGGACCGGTTTTCCCGGTAATCCGTATTTGTG (site CAAGAGCCTCA)” are within 0.2 log units of each other in “recombinant UMI read abundance (log10)” value: 0.0221 for the first, 0.0105 for the second.

“CAAGCGCCATGGACCGGTTTTCCCGGTAATCCGTATTTGTG (site CAAGCACCTCA)” and “CAAGCGCCATGGACCGGTTTTCCCGGTAATCCGTATTTGTG (site CAAGCCCCTCA)” are within 0.2 log units of each other in “recombinant UMI read abundance (log10)” value: 0.0231 for the first, 0.0168 for the second.

“CAAGCGCCATGGACCGGTTTTCCCGGTAATCCGTATTTGTG (site CAAGCGACTCA)” and “CAAGCGCCATGGACCGGTTTTCCCGGTAATCCGTATTTGTG (site CAAGCGCCTAA)” are within 0.2 log units of each other in “recombinant UMI read abundance (log10)” value: 0.0185 for the first, 0.00762 for the second.

“CAAGCGCCATGGACCGGTTTTCCCGGTAATCCGTATTTGTG (site CAAGCGCCTCA)” and “CAAGCGCCATGGACCGGTTTTCCCGGTAATCCGTATTTGTG (site CAAGCGCCTCC)” are within 0.2 log units of each other in “recombinant UMI read abundance (log10)” value: 0.0111 for the first, 0.0342 for the second.

Going from “CAAGCGCCATGGACCGGTTTTCCCGGTAATCCGTATTTGTG (site CAAGCGCCTCG)” to “CAAGCGCCATGGACCGGTTTTCCCGGTAATCCGTATTTGTG (site CAAGCGCCTCT)”, the “recombinant UMI read abundance (log10)” value falls from 1.36 to 0.218.

“CAAGCGCCATGGACCGGTTTTCCCGGTAATCCGTATTTGTG (site CAAGCGCCTGA)” and “CAAGCGCCATGGACCGGTTTTCCCGGTAATCCGTATTTGTG (site CAAGCGCCTTA)” are within 0.2 log units of each other in “recombinant UMI read abundance (log10)” value: 0.706 for the first, 0.627 for the second.

Compared with “CAAGCGCCATGGACCGGTTTTCCCGGTAATCCGTATTTGTG (site CAAGCGGCTCA)”, “CAAGCGCCATGGACCGGTTTTCCCGGTAATCCGTATTTGTG (site CAAGCGTCTCA)” is higher in “recombinant UMI read abundance (log10)” value: 0.00842 for the first, 1.85 for the second.

“CAAGCGCCATGGACCGGTTTTCCCGGTAATCCGTATTTGTG (site CAAGCTCCTCA)” and “CAAGCGCCATGGACCGGTTTTCCCGGTAATCCGTATTTGTG (site CAAGGGCCTCA)” are within 0.2 log units of each other in “recombinant UMI read abundance (log10)” value: 0.185 for the first, 0.0216 for the second.

“CAAGCGCCATGGACCGGTTTTCCCGGTAATCCGTATTTGTG (site CAAGTGCCTCA)” and “CAAGCGCCATGGACCGGTTTTCCCGGTAATCCGTATTTGTG (site CAATCGCCTCA)” are within 0.2 log units of each other in “recombinant UMI read abundance (log10)” value: 0.0157 for the first, 0.0117 for the second.

“CAAGCGCCATGGACCGGTTTTCCCGGTAATCCGTATTTGTG (site CACGCGCCTCA)” and “CAAGCGCCATGGACCGGTTTTCCCGGTAATCCGTATTTGTG (site CAGGCGCCTCA)” are within 0.2 log units of each other in “recombinant UMI read abundance (log10)” value: 0.0238 for the first, 0.0473 for the second.

“CAAGCGCCATGGACCGGTTTTCCCGGTAATCCGTATTTGTG (site CATGCGCCTCA)” and “CAAGCGCCATGGACCGGTTTTCCCGGTAATCCGTATTTGTG (site CCAGCGCCTCA)” are within 0.2 log units of each other in “recombinant UMI read abundance (log10)” value: 0.047 for the first, 0.00697 for the second.

“CAAGCGCCATGGACCGGTTTTCCCGGTAATCCGTATTTGTG (site CGAGCGCCTCA)” and “CAAGCGCCATGGACCGGTTTTCCCGGTAATCCGTATTTGTG (site CTAGCGCCTCA)” are within 0.2 log units of each other in “recombinant UMI read abundance (log10)” value: 0.0092 for the first, 0.0166 for the second.

“CAAGCGCCATGGACCGGTTTTCCCGGTAATCCGTATTTGTG (site GAAGCGCCTCA)” and “CAAGCGCCATGGACCGGTTTTCCCGGTAATCCGTATTTGTG (site TAAGCGCCTCA)” are within 0.2 log units of each other in “recombinant UMI read abundance (log10)” value: 0.0137 for the first, 0.0306 for the second.

Compared with “CAAGCGGCATGGACCGGTTTTCCCGGTAATCCGTATTTGCT (site CAAGCAGCTAG)”, “CAAGCGGCATGGACCGGTTTTCCCGGTAATCCGTATTTGCT (site CAAGCCGCTAG)” is lower in “recombinant UMI read abundance (log10)” value: 0.584 for the first, 0 for the second.

First: CAAGCGGCATGGACCGGTTTTCCCGGTAATCCGTATTTGCT (site CAAGCGGCTAG)
Second: CAAGCGGCATGGACCGGTTTTCCCGGTAATCCGTATTTGCT (site CAAGCTGCTAG)
The “recombinant UMI read abundance (log10)” value of the first is higher: 1.72 for the first, 0 for the second.

“CAAGCTGCATGGACCGGTTTTCCCGGTAATCCGTATTTGGG (site CAAGCTGCTCC)” and “CAAGGACCATGGACCGGTTTTCCCGGTAATCCGTATTTGGG (site CAAGGACCTCC)” are within 0.2 log units of each other in “recombinant UMI read abundance (log10)” value: 0.0432 for the first, 0 for the second.

“CAAGGACCATGGACCGGTTTTCCCGGTAATCCGTATTTGGG (site CCAGGACCTCC)” and “CAAGGACCATGGACCGGTTTTCCCGGTAATCCGTATTTGGG (site CGAGGACCTCC)” are within 0.2 log units of each other in “recombinant UMI read abundance (log10)” value: 0.0136 for the first, 0.0074 for the second.

“CAAGGACCATGGACCGGTTTTCCCGGTAATCCGTATTTGGG (site CTAGGACCTCC)” and “CAAGGCACATGGACCGGTTTTCCCGGTAATCCGTATTTGGG (site CAAGACACTCC)” are within 0.2 log units of each other in “recombinant UMI read abundance (log10)” value: 0.0255 for the first, 0.00686 for the second.

“CAAGGCACATGGACCGGTTTTCCCGGTAATCCGTATTTGGG (site CAAGCCACTCC)” and “CAAGGCACATGGACCGGTTTTCCCGGTAATCCGTATTTGGG (site CAAGGCACTCC)” are within 0.2 log units of each other in “recombinant UMI read abundance (log10)” value: 0.0196 for the first, 0.0216 for the second.

Going from “CAAGGCACATGGACCGGTTTTCCCGGTAATCCGTATTTGGG (site CAAGTCACTCC)” to “CAAGGCCCATGGACCGGTTTTCCCGGTAATCCGTATTTGTT (site CAAGGCCCTAA)”, the “recombinant UMI read abundance (log10)” value falls from 0.397 to 0.0195.

“CAAGGCCCATGGACCGGTTTTCCCGGTAATCCGTATTTGTT (site CACGGCCCTAA)” and “CAAGGCCCATGGACCGGTTTTCCCGGTAATCCGTATTTGTT (site CAGGGCCCTAA)” are within 0.2 log units of each other in “recombinant UMI read abundance (log10)” value: 0.0285 for the first, 0.0144 for the second.

Going from “CAAGGCCCATGGACCGGTTTTCCCGGTAATCCGTATTTGTT (site CATGGCCCTAA)” to “CAAGGCGCATGGACCGGTTTTCCCGGTAATCCGTATTTGGA (site CAAGGCGCTTC)”, the “recombinant UMI read abundance (log10)” value rises from 0.0187 to 1.42.

First: CAAGGGCCATGGACCGGTTTTCCCGGTAATCCGTATTTGTG (site CAAGAGCCTCA)
Second: CAAGGGCCATGGACCGGTTTTCCCGGTAATCCGTATTTGTG (site CAAGCGCCTCA)
The “recombinant UMI read abundance (log10)” value of the first is higher: 0.431 for the first, 0.0177 for the second.

“CAAGGGCCATGGACCGGTTTTCCCGGTAATCCGTATTTGTG (site CAAGGGCCTCA)” and “CAAGGGCCATGGACCGGTTTTCCCGGTAATCCGTATTTGTG (site CAAGTGCCTCA)” are within 0.2 log units of each other in “recombinant UMI read abundance (log10)” value: 0.314 for the first, 0.115 for the second.

With “CAAGGGGCATGGACCGGTTTTCCCGGTAATCCGTATTTGTT (site CAAGGGGCTAA)” the “recombinant UMI read abundance (log10)” value was 2.43.
